PubChem BioAssay AID1259407 (Chemical Carcinogenesis Research Information System (CCRIS), 2018)
Active and inactive are the calls of the source. The rule behind the calls is not given here.

Tested on: CCRIS mutagenicity, Ames/micronucleus/aberration tests
Experiment: CCRIS mutagenicity studies
[1] = Test System: AMES SALMONELLA TYPHIMURIUM, Strain/Indicator: TA98, Metabolic Activation: NONE, Method: PREINCUBATION
[2] = Test System: AMES SALMONELLA TYPHIMURIUM, Strain/Indicator: TA100, Metabolic Activation: NONE, Method: PREINCUBATION
[3] = Test System: AMES SALMONELLA TYPHIMURIUM, Strain/Indicator: TA1535, Metabolic Activation: NONE, Method: PREINCUBATION
[4] = Test System: AMES SALMONELLA TYPHIMURIUM, Strain/Indicator: TA1537, Metabolic Activation: NONE, Method: PREINCUBATION

In the case of `CCCCCCCCO`, the mutagenic call [1] is reported as “inactive; negative”, the mutagenic call (Test System: AMES SALMONELLA TYPHIMURIUM, Strain/Indicator: TA98, Metabolic Activation: RAT, LIVER, S-9, PHENOBARBITAL AND BETA-NAPHTHOFLAVONE, Method: PREINCUBATION) is reported as “inactive; negative” and the mutagenic call [2] is reported as “inactive; negative”. For the same compound, the mutagenic call (Test System: AMES SALMONELLA TYPHIMURIUM, Strain/Indicator: TA100, Metabolic Activation: RAT, LIVER, S-9, PHENOBARBITAL AND BETA-NAPHTHOFLAVONE, Method: PREINCUBATION) was “inactive; negative”, the mutagenic call (Test System: AMES SALMONELLA TYPHIMURIUM, Strain/Indicator: TA100, Metabolic Activation: RAT, LIVER, S-9, SODIUM PHENOBARBITAL AND 5,6-BENZOFLAVONE, Method: PREINCUBATION) was “inactive; negative” and the mutagenic call (Test System: AMES SALMONELLA TYPHIMURIUM, Strain/Indicator: TA102, Metabolic Activation: NONE, Method: PREINCUBATION) was “inactive; negative”. The mutagenic call (Test System: AMES SALMONELLA TYPHIMURIUM, Strain/Indicator: TA102, Metabolic Activation: RAT, LIVER, S-9, PHENOBARBITAL AND BETA-NAPHTHOFLAVONE, Method: PREINCUBATION) was “inactive; negative”, the mutagenic call (Test System: AMES SALMONELLA TYPHIMURIUM, Strain/Indicator: TA102, Metabolic Activation: RAT, LIVER, S-9, SODIUM PHENOBARBITAL AND 5,6-BENZOFLAVONE, Method: PREINCUBATION) was “inactive; negative” and the mutagenic call (Test System: AMES SALMONELLA TYPHIMURIUM, Strain/Indicator: TA104, Metabolic Activation: NONE, Method: PREINCUBATION) was “inactive; negative”. The mutagenic call (Test System: AMES SALMONELLA TYPHIMURIUM, Strain/Indicator: TA104, Metabolic Activation: RAT, LIVER, S-9, PHENOBARBITAL AND BETA-NAPHTHOFLAVONE, Method: PREINCUBATION) was “inactive; negative”, the mutagenic call (Test System: AMES SALMONELLA TYPHIMURIUM, Strain/Indicator: TA104, Metabolic Activation: RAT, LIVER, S-9, SODIUM PHENOBARBITAL AND 5,6-BENZOFLAVONE, Method: PREINCUBATION) was “inactive; negative” and the mutagenic call [3] was “inactive; negative”. For the same compound, the mutagenic call (Test System: AMES SALMONELLA TYPHIMURIUM, Strain/Indicator: TA1535, Metabolic Activation: RAT, LIVER, S-9, PHENOBARBITAL AND BETA-NAPHTHOFLAVONE, Method: PREINCUBATION) was “inactive; negative”, the mutagenic call [4] was “inactive; negative” and the mutagenic call (Test System: AMES SALMONELLA TYPHIMURIUM, Strain/Indicator: TA1537, Metabolic Activation: RAT, LIVER, S-9, PHENOBARBITAL AND BETA-NAPHTHOFLAVONE, Method: PREINCUBATION) was “inactive; negative”. For the same compound, the mutagenic call (Test System: E. COLI, Strain/Indicator: WP2UVRA/PKM101, Metabolic Activation: NONE, Method: PREINCUBATION) was “inactive; negative”, the mutagenic call (Test System: E. COLI, Strain/Indicator: WP2UVRA/PKM101, Metabolic Activation: RAT, LIVER, S-9, PHENOBARBITAL AND BETA-NAPHTHOFLAVONE, Method: PREINCUBATION) was “inactive; negative” and the mutagenic call (Test System: E. COLI, Strain/Indicator: WP2UVRA/PKM101, Metabolic Activation: RAT, LIVER, S-9, SODIUM PHENOBARBITAL AND 5,6-BENZOFLAVONE, Method: PREINCUBATION) was “inactive; negative”. The mutagenic call (Test System: E. COLI, Strain/Indicator: WP2UVRA, Metabolic Activation: NONE, Method: PREINCUBATION) was “inactive; negative” and the mutagenic call (Test System: E. COLI, Strain/Indicator: WP2UVRA, Metabolic Activation: RAT, LIVER, S-9, PHENOBARBITAL AND BETA-NAPHTHOFLAVONE, Method: PREINCUBATION) was “inactive; negative”.
In the case of `C=CC(=O)OCC(CO)(COC(=O)C=C)COC(=O)C=C`, the mutagenic call (End Point: In vivo micronucleus, Test System: Peripheral blood normochromatic erythrocytes, Species: Mouse, Strain/Sex: B6C3F1/Female) is reported as “inactive; negative”, the mutagenic call (End Point: In vivo micronucleus, Test System: Peripheral blood normochromatic erythrocytes, Species: Mouse, Strain/Sex: B6C3F1/Male, Route: Dermal) is reported as “inactive; negative” and the mutagenic call (End Point: In vivo micronucleus, Test System: Peripheral blood normochromatic erythrocytes, Species: Mouse, Strain/Sex: FVB.N/TgN (v-Ha-ras) Tg.AC hemizygous/Female, Route: Dermal) is reported as “active; positive”. The mutagenic call (End Point: In vivo micronucleus, Test System: Peripheral blood normochromatic erythrocytes, Species: Mouse, Strain/Sex: FVB.N/TgN (v-Ha-ras) Tg.AC hemizygous/Male, Route: Dermal) was “inactive; negative (described as equivocal by ntp)”, the mutagenic call (Test System: AMES SALMONELLA TYPHIMURIUM, Strain/Indicator: TA98, Metabolic Activation: HAMSTER, LIVER, S-9, AROCLOR 1254 (10%), Method: PREINCUBATION) was “inactive; negative” and the mutagenic call [1] was “inactive; negative”. For the same compound, the mutagenic call (Test System: AMES SALMONELLA TYPHIMURIUM, Strain/Indicator: TA98, Metabolic Activation: RAT, LIVER, S-9, AROCLOR 1254 (10%), Method: PREINCUBATION) was “inactive; negative”, the mutagenic call (Test System: AMES SALMONELLA TYPHIMURIUM, Strain/Indicator: TA100, Metabolic Activation: HAMSTER, LIVER, S-9, AROCLOR 1254 (10%), Method: PREINCUBATION) was “inactive; negative” and the mutagenic call [2] was “inactive; negative”. For the same compound, the mutagenic call (Test System: AMES SALMONELLA TYPHIMURIUM, Strain/Indicator: TA100, Metabolic Activation: RAT, LIVER, S-9, AROCLOR 1254 (10%), Method: PREINCUBATION) was “inactive; negative”, the mutagenic call (Test System: AMES SALMONELLA TYPHIMURIUM, Strain/Indicator: TA1535, Metabolic Activation: HAMSTER, LIVER, S-9, AROCLOR 1254 (10%), Method: PREINCUBATION) was “inactive; negative” and the mutagenic call [3] was “inactive; negative”. For the same compound, the mutagenic call (Test System: AMES SALMONELLA TYPHIMURIUM, Strain/Indicator: TA1535, Metabolic Activation: RAT, LIVER, S-9, AROCLOR 1254 (10%), Method: PREINCUBATION) was “inactive; negative”, the mutagenic call (Test System: AMES SALMONELLA TYPHIMURIUM, Strain/Indicator: TA1537, Metabolic Activation: HAMSTER, LIVER, S-9, AROCLOR 1254 (10%), Method: PREINCUBATION) was “inactive; negative” and the mutagenic call [4] was “inactive; negative”. For the same compound, the mutagenic call (Test System: AMES SALMONELLA TYPHIMURIUM, Strain/Indicator: TA1537, Metabolic Activation: RAT, LIVER, S-9, AROCLOR 1254 (10%), Method: PREINCUBATION) was “inactive; negative” and the mutagenic call (Test System: MOUSE LYMPHOMA, Strain/Indicator: L5178Y (TK+/TK-), Metabolic Activation: NONE, Method: SUSPENSION/PLATE) was “active; positive”.
With `CNc1ccnc(-c2cc(N(C)C)ccn2)c1.CNc1ccnc(-c2cc(N(C)C)ccn2)c1.F[P-](F)(F)(F)(F)F.F[P-](F)(F)(F)(F)F.F[P-](F)(F)(F)(F)F.F[P-](F)(F)(F)(F)F.[NH3+]Cc1ccnc(-c2cc(C[NH3+])ccn2)c1.[Os+2]` the mutagenic call (Test System: AMES SALMONELLA TYPHIMURIUM, Strain/Indicator: TA98, Metabolic Activation: NONE, Method: STANDARD PLATE) was “inactive; negative”, the mutagenic call (Test System: AMES SALMONELLA TYPHIMURIUM, Strain/Indicator: TA98, Metabolic Activation: RAT, LIVER, S-9, AROCLOR 1254, Method: STANDARD PLATE) was “inactive; negative” and the mutagenic call (Test System: AMES SALMONELLA TYPHIMURIUM, Strain/Indicator: TA100, Metabolic Activation: NONE, Method: STANDARD PLATE) was “inactive; negative”. The mutagenic call (Test System: AMES SALMONELLA TYPHIMURIUM, Strain/Indicator: TA100, Metabolic Activation: RAT, LIVER, S-9, AROCLOR 1254, Method: STANDARD PLATE) was “inactive; negative”.
